In test [1] the test system is monocrotaline-induced pulmonary hypertension model rats (MCT-PAH). Kind of test: Monocrotaline-induced pulmonary hypertension model rats, oral (gavage) treatment for 21 days. It is filed as in vivo, SD rats. The following applies: 100 mg/kg. An excerpt:
Monocrotaline (MCT) was subcutaneously injected to establish an animal model of pulmonary hypertension in SD rats. At the same time, compound 1 was given by gavage for treatment. The pulmonary artery hemodynamics and right heart hypertrophy index RVHI of the rates were detected to determine whether the oral administration of compound 1 has effects of improving Monocrotaline induces pulmonary hypertension.
(§1) SD rats (purchased from Shanghai Xipuer-Bikai Experimental Animal Co., Ltd.), male, weighing 180-200 g, were bred in an artificially controlled animal room with each 12 hours of light and darkness at a temperature of 20-25° C. and relative humidity of 50-60%, and allowed ad libitum to food and water. The rats were randomly divided into groups according to the experimental requirements, and kept separately in cages, with 3 to 4 rats per cage. All relevant operations of animal experiments are in compliance with the provisions of “Guidelines for the Management and Use of Laboratory Animals” of China.
During the experiment, SD rats were randomly divided into 4 groups: blank control group, pulmonary hypertension model group, Selexipag (1 mg/kg) treatment group and compound 1 (100 mg/kg) group with 6 rats in each group, and the concentration in brackets represents the administration concentration of the compound, in which Selexipag is a new oral long-acting prostacyclin receptor agonist discovered and synthesized by Japan New Drug Co., Ltd. On the first day of the experiment, normal saline was injected subcutaneously into the back of neck of rats in the blank control group, and monocrotaline (Chengdu Purifa Biotechnology Co., Ltd.) solution was injected in the rats in other groups at a dosage of 60 mg/kg. Both the positive drug, Selexipag and Compound 1 were administered by gavage. Selexipag and […] were dissolved in 0.5% CMC-Na solution. The rats were continuously administered for 21 days with a volume of […]. The rats in the control and model groups were given the corresponding volume of CMC-Na solution by gavage. Specific groupings can be found in Table 7.
After the administration, the pulmonary vascular hemodynamics and RVHI was determined according to the same experiment method as that in Example 1.

Test [2] has as its system spontaneously hypertensive rats (SHR). Kind of test: Antihypertensive activity test: blood pressure and heart rate of spontaneously hypertensive rats (SHR). The following applies: 200 mg/kg; for SHR blood pressure (SBP), time after administration 1 h / SHR blood pressure (SBP), time after administration 2 h / SHR blood pressure (SBP), time after administration 3 h / SHR blood pressure (SBP), time after administration 4 h / SHR blood pressure (SBP), time after administration 5 h / SHR blood pressure (SBP), time after administration 6 h: n = 8. The class given is in vivo, rat. The gist of the method:
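Spontaneously hypertensive rats received compound at 200 mg/kg. SBP and heart rate were measured before and after dosing. A drop in SBP of ≥20 mmHg from baseline counted as effective, and heart-rate changes were tested by paired t-test (P<0.05).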

The subject of test [3] is hypoxic pulmonary hypertension model rats. Kind of test: Hypoxic pulmonary hypertension model rats, oral (gavage) treatment for 28 days. The class given is in vivo, SD rats. The following applies: hypoxic PAH rats, 200 mg/kg, po. As to the method:
An animal model of pulmonary hypertension in SD rats was established in a hypoxic and low-pressure environment, and compound 1 was administered by gavage at the same time for treatment. The rat pulmonary artery hemodynamics and right heart hypertrophy index RVHI were measured to determine whether compound 1 has effects of improving hypoxic pulmonary hypertension.
as §1
The hypoxic PAH model was established by placing SD male rats in a fully-automatically regulated low-pressure hypoxic chamber (atmospheric pressure of about 50 kPa, oxygen concentration of 10%) for 8 hours a day for 28 days. The rats in the blank control group were kept in a normoxic environment.
The experimental rats of hypoxic PAH model were divided into 8 groups, namely blank control group, model group, Sidenafil (25 mg/kg) group, compound 1 (10 mg/kg) group, compound 1 (25 mg/kg) group, compound 1 (50 mg/kg) group, compound 1 (100 mg/kg) group, and compound 1 (200 mg/kg) group. The concentration in the parentheses of the group name represents the administration concentration of the compound or drug. In hypoxia-induced PAH experiments, Sidenafil is often used as a positive drug, which can reduce the pulmonary artery pressure in rats and reduce the right ventricular hypertrophy and vascular remodeling. In this experiment, 25 mg/kg of Sidenafil was used as the positive drug. Both the positive drugs Sidenafil and Compound 1 were dissolved in physiological saline and formulated into solutions of different concentrations according to different administration concentrations. The rats were continuously administered for 28 days with an administration volume of 5 ml/kg. Rats in the control and model groups were given the corresponding volume of physiological saline solution via gavage. The specific grouping can be found in Table 5.
After the administration was completed, the POWERLAB biological information acquisition and treatment system was started, and the right cardiac catheter filled with 0.2% heparin sodium (Beijing Solo Technology Co. Ltd.) in normal saline was connected to the pressure transducer and then zero-calibrationed for use. After 20% urethane (Shanghai Yuanye Biotechnology Co., Ltd.) solution was injected into the abdominal cavity of the rats for anesthesia, the right neck hair was shaved and the right jugular vein was isolated and exposed. […] After the typical right ventricular waveform appeared and stabilized for a while, the waveform was recorded, and then the pressure value was read by Powerlab biological information acquisition and processing system (ADInstruments).
After the pressure was measured, the catheter was taken out, and the rat was dissected immediately to take out the heart and lung tissues. The right ventricle (RV) and the left ventricle and interventricular septum (LV+S) were separated and weighed, and the right heart hypertrophy index RVHI=RV/(LV+S) was calculated. The lung lobe tissue from the right lower part of the lung was separated, soaked in 4% paraformaldehyde (Sigma) for about 1 week to prepare a paraffin section with a thickness of 3 μm, and then conducted to hematoxylin-eosin staining (Wuhan Guge Biotechnology Co., Ltd.). […]

The subject of test [4] is monocrotaline-induced pulmonary hypertension model rats (MCT-PAH). Kind of test: Monocrotaline-induced pulmonary hypertension model rats, aerosol inhalation treatment. The class given is in vivo, SD rats. The following applies: 30 mg/kg, inh, 28 days. As to the method:
A pulmonary hypertension animal model of SD rats was established by subcutaneous injection of monocrotaline (MCT). The compound 1 was administered by aerosol inhalation for treatment. The pulmonary artery hemodynamics and right heart hypertrophy index RVHI of rats were tested to determine whether compound 1 administered by aerosol inhalation has effects of improving monocrotaline-induced pulmonary hypertension.
as §1
In the second experiment, the rats were divided into 5 groups, namely the control group, model group, positive control Tyvaso (1.62 μg/kg) group, compound 1 (10 mg/kg) group and compound 1 (30 mg/kg) group. On the first day of the experiment, normal saline was injected subcutaneously into the back of the neck of the rats in the blank control group, and monocrotaline (Chengdu Purifa Biotechnology Co., Ltd.) solution was injected in the other groups at a dosage of 60 mg/kg. Compound 1 and Tyvaso were administered by aerosol inhalation, that is, the compound was firstly dissolved in physiological saline, and then the solution was prepared into an aerosol with a nebulizer to be inhaled into the mouth and nose of rats. The rats in the control group and the model group only inhaled an aerosol made of physiological saline. The rats were continuously administered for 28 days, and the concentration in the parentheses of the group name represents the administered concentration of the compound. Specific groupings can be found in Table 9. After the administration, the pulmonary vascular hemodynamics and RVHI were determined in the same way as the experiment method in Example 1.

On to `CCc1cccc(C(CO)OC2OC(CO)C(O)C(O)C2O)c1` (stereo not drawn) [Compound 16], for which, in test [1], the “2 × MT/ED” value is reported as 0.32 ± 0.066, the RVHI was determined as 0.320 ± 0.031, the RVSP came to 48.89 ± 6.64 mmHg and the mPAP is on record as 16.74 ± 3.08 mmHg. Besides, in test [2], the “SBP Difference before and after administration, 1 h” value was 9 mmHg; the “SHR blood pressure (SBP), time after administration 1 h” value came out at 174 ± 10.6 mmHg; the “SBP Difference before and after administration, 2 h” value was 11 mmHg; the “SHR blood pressure (SBP), time after administration 2 h” value was 172 ± 10.4 mmHg. In test [2], the “SBP Difference before and after administration, 3 h” value is reported as 10 mmHg; the “SHR blood pressure (SBP), time after administration 3 h” value is 173 ± 9.90 mmHg; the “SBP Difference before and after administration, 4 h” value is reported as 15 mmHg; the “SHR blood pressure (SBP), time after administration 4 h” value was 168 ± 6.61 mmHg. In addition, in test [2], the “SBP Difference before and after administration, 5 h” value came to 11 mmHg; the “SHR blood pressure (SBP), time after administration 5 h” value is reported as 172 ± 7.25 mmHg; the “SBP Difference before and after administration, 6 h” value worked out at 9 mmHg; the “SHR blood pressure (SBP), time after administration 6 h” value is 174 ± 12.1 mmHg. Also, in test [3], the “2 × MT/ED” value is 0.289 ± 0.030, the RVHI came out at 0.365 ± 0.031, the RVSP turned out to be 65.83 ± 3.26 mmHg and the mPAP came out at 18.60 ± 3.60 mmHg. Besides, in test [4], the “2 × MT/ED” value is on record as 0.357 ± 0.032, the RVHI came out at 0.290 ± 0.054, the RVSP turned out to be 41.44 ± 2.03 mmHg and the mPAP worked out at 14.76 ± 1.98 mmHg.
Take `CCc1cccc(C(COC(C)=O)OC(C)=O)c1` (stereo not drawn) [Compound 30]: in test [1], the “2 × MT/ED” value is 0.31 ± 0.021, the RVHI worked out at 0.245 ± 0.032, the RVSP is on record as 44.38 ± 2.89 mmHg and the mPAP is recorded as 16.21 ± 1.29 mmHg. In test [2], the “SBP Difference before and after administration, 1 h” value is reported as 4 mmHg; the “SHR blood pressure (SBP), time after administration 1 h” value is reported as 189 ± 7.54 mmHg; the “SBP Difference before and after administration, 2 h” value came out at 5 mmHg; the “SHR blood pressure (SBP), time after administration 2 h” value was found to be 188 ± 3.69 mmHg. Further, in test [2], the “SBP Difference before and after administration, 3 h” value stood at 8 mmHg; the “SHR blood pressure (SBP), time after administration 3 h” value is given as 185 ± 10.11 mmHg; the “SBP Difference before and after administration, 4 h” value is 20 mmHg; the “SHR blood pressure (SBP), time after administration 4 h” value turned out to be 183 ± 9.66 mmHg. In addition, in test [2], the “SBP Difference before and after administration, 5 h” value is listed as 5 mmHg; the “SHR blood pressure (SBP), time after administration 5 h” value was found to be 188 ± 14.9 mmHg; the “SBP Difference before and after administration, 6 h” value came to 5 mmHg; the “SHR blood pressure (SBP), time after administration 6 h” value is given as 188 ± 8.64 mmHg. Moreover, in test [3], the “2 × MT/ED” value is given as 0.287 ± 0.025, the RVHI was determined as 0.303 ± 0.0632, the RVSP was 62.14 ± 3.35 mmHg and the mPAP stood at 16.03 ± 5.35 mmHg. Moreover, in test [4], the “2 × MT/ED” value is reported as 0.402 ± 0.034, the RVHI turned out to be 0.273 ± 0.043, the RVSP is recorded as 46.04 ± 3.27 mmHg and the mPAP is recorded as 16.00 ± 3.44 mmHg.

For the origin of these results see US12180146B2, “Antihypertensive polyol compound and derivative thereof” (TAO PHARMACEUTICAL (SUZHOU) CO., LTD, priority 2020, dated 2024).
